Literature values, collected in US10577339B2, “Method for manufacturing furan-2,5-dicarboxylic acid (FDCA) from a salt solution” (PURAC BIOCHEM BV, priority 2015, dated 2020).

Conditions: at 40° C.

O=S(=O)([O-])[O-].[Na+].[Na+] [Na2SO4, sodium sulphate]
saturation concentration: 32.8%
